The values that follow come from PubChem BioAssay (NCI).

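Five concentrations, 48 hours, 96-well plates. GI50 marks 50% less growth. The concentration for full growth arrest is given as TGI.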

Among the test systems are SNB-78 CNS; M19-MEL melanoma; HOP-18 NSCLC; LXFL 529 NSCLC; DMS 273 small cell lung; DMS 114 small cell lung; RXF-631 renal; XF 498 CNS; MDA-N.
Holding throughout (test): growth of human tumour cells (NCI), 48 h

On to `CC(=O)c1cccc(C)c1C(=O)O`, for which the TGI with SNB-78 CNS, with M19-MEL melanoma, in the experiment on HOP-18 NSCLC, with LXFL 529 NSCLC, in the experiment with DMS 273 small cell lung and in the experiment with DMS 114 small cell lung was above 100 µM each time.
On to `CCOC(=O)/C(=C\c1ccc(N(CCC#N)CCC#N)cc1)NC(=O)c1cc([N+](=O)[O-])ccc1Cl`, for which the TGI in the experiment with SNB-78 CNS, in the experiment on M19-MEL melanoma, in the experiment on RXF-631 renal, with HOP-18 NSCLC, in the experiment on LXFL 529 NSCLC and in the experiment on DMS 273 small cell lung was above 100 µM each time. The same compound yielded a TGI with DMS 114 small cell lung above 100 µM.
Turning to `COc1cc(OC)c(SSCCCCS(=O)O)c(OC)c1`, the TGI in the experiment on SNB-78 CNS turned out to be 29.4 µM; with M19-MEL melanoma, 22.9 µM; in the experiment on HOP-18 NSCLC it was 45.8 µM; in the experiment on LXFL 529 NSCLC, 25.2 µM; in the experiment with DMS 273 small cell lung it was 34.8 µM; in the experiment with DMS 114 small cell lung it was 39 µM. The compound further yielded a TGI in the experiment with XF 498 CNS of 27.6 µM.
Compound `O=C(O)CCCSc1ccccc1` displayed a TGI with MDA-N above 100 µM.
For the compound `CC(=O)OC1CCn2nnc(CO)c21` (centres undefined), the TGI with SNB-78 CNS, in the experiment on M19-MEL melanoma, with HOP-18 NSCLC, in the experiment with LXFL 529 NSCLC, in the experiment with DMS 273 small cell lung and with DMS 114 small cell lung was above 100 µM each time. This compound also showed a TGI with XF 498 CNS above 100 µM.
With `CC(=O)CC(N)=O`, the TGI with SNB-78 CNS, in the experiment on M19-MEL melanoma, in the experiment on RXF-631 renal, in the experiment with HOP-18 NSCLC, in the experiment with LXFL 529 NSCLC and with DMS 273 small cell lung was above 100 µM each time. The TGI in the experiment on DMS 114 small cell lung and with XF 498 CNS was above 100 µM throughout.
In the experiment on MDA-N, `C=C1C(C2(C)C(OC(C)=O)CC(=O)OC(C)(COC(C)=O)C2CC(=O)OC)C(OC=O)C(OC(=O)C(O)C(C)CC)C2(C)C(c3ccoc3)CC(=O)C12O` (centres undefined) gave a TGI above 100 µM.
In the case of `CC1=C(C(=O)Nc2cc(=O)n(C)c(=O)n2C)C(c2cccc([N+](=O)[O-])c2)C(C(=O)Nc2cc(=O)n(C)c(=O)n2C)=C(C)N1`, the TGI with SNB-78 CNS, with M19-MEL melanoma, with LXFL 529 NSCLC and in the experiment with DMS 114 small cell lung was above 100 µM throughout.
As to `CN1CC(=O)N(C)c2ncn(Cc3ccccc3)c2C1=O`, the TGI in the experiment with SNB-78 CNS, in the experiment on M19-MEL melanoma, with RXF-631 renal, in the experiment on HOP-18 NSCLC, in the experiment with LXFL 529 NSCLC and in the experiment on DMS 273 small cell lung was above 100 µM in each case. Also, the TGI in the experiment on DMS 114 small cell lung was above 100 µM; in the experiment on XF 498 CNS, 96.4 µM.
With `c1ccc2c(NCCCCCCNc3c4ccccc4nc4ccccc34)c3ccccc3nc2c1`, the TGI in the experiment on MDA-N came to 1.62 µM; in the experiment on M19-MEL melanoma, 2.48 µM; in the experiment on HOP-18 NSCLC, 15.2 µM; in the experiment on LXFL 529 NSCLC, 2.42 µM; in the experiment with DMS 273 small cell lung, 1.35 µM; in the experiment on DMS 114 small cell lung, 2 µM. In the experiment on XF 498 CNS, this compound came in with a TGI of 2.72 µM.
Take `C=C(C#N)C1OCC2OC(C)(C)OC21` (centres undefined): the TGI with SNB-78 CNS was determined as 43 µM; in the experiment with M19-MEL melanoma it was 61.8 µM; in the experiment with RXF-631 renal it was 35.8 µM; in the experiment on HOP-18 NSCLC, 81.7 µM; with DMS 273 small cell lung it was 43.1 µM; in the experiment on DMS 114 small cell lung, 57.2 µM.
Consider `Cc1cccc(C)c1CO`, for which the TGI in the experiment on SNB-78 CNS, with M19-MEL melanoma, in the experiment with RXF-631 renal, in the experiment on LXFL 529 NSCLC, in the experiment with DMS 273 small cell lung and in the experiment with DMS 114 small cell lung was above 100 µM throughout. In addition, the TGI with XF 498 CNS is above 100 µM.
Regarding `O=C1c2ccccc2-c2oc(=O)c3ccccc3c21`, the TGI in the experiment with MDA-N is above 100 µM.
Turning to `CC(C)[O-].CC(C)[O-].O=C1C=C([O-])C(=O)c2ccccc21.O=C1C=C([O-])C(=O)c2ccccc21.[Ti+4]`, the GI50 was 4.42 µM with M19-MEL melanoma; above 86.7 µM in the experiment on HOP-18 NSCLC; 80.8 µM in the experiment with LXFL 529 NSCLC; 34.9 µM in the experiment on DMS 273 small cell lung; above 100 µM in the experiment with XF 498 CNS. For the same compound, the TGI with M19-MEL melanoma, in the experiment with HOP-18 NSCLC, with LXFL 529 NSCLC, in the experiment on DMS 273 small cell lung and with XF 498 CNS was above 100 µM in each case.
In the case of `O=C(CCc1nnc2s/c(=C\c3ccc(Cl)c(Cl)c3)c(=O)n12)Nc1ccc(Cl)c(Cl)c1`, the TGI with M19-MEL melanoma, with HOP-18 NSCLC, in the experiment with LXFL 529 NSCLC, with DMS 114 small cell lung and in the experiment on XF 498 CNS was above 100 µM each time.
Regarding `CC(=O)[CH-]C(=O)c1ccccc1.CC(=O)[CH-]C(=O)c1ccccc1.CC(C)CCCC(C)[C@H]1CCC2[C@@H]3CC=C4C[C@@H]([O-])CC[C@]4(C)C3CC[C@@]21C.CC(C)CCCC(C)[C@H]1CCC2[C@@H]3CC=C4C[C@@H]([O-])CC[C@]4(C)C3CC[C@@]21C.[Ti+4]` (some centres undefined), the GI50 in the experiment on HOP-18 NSCLC, with LXFL 529 NSCLC and in the experiment on DMS 273 small cell lung was above 100 µM throughout. In addition, the TGI with HOP-18 NSCLC, in the experiment on LXFL 529 NSCLC and with DMS 273 small cell lung was above 100 µM each time.
Turning to `COc1ccc(NC(=O)CC/C(CC(=O)C(C)(C)C)=N\NC(=O)C(=O)NN)cc1`, the TGI in the experiment on SNB-78 CNS, in the experiment on M19-MEL melanoma, in the experiment with RXF-631 renal, with HOP-18 NSCLC, in the experiment with LXFL 529 NSCLC and in the experiment with DMS 273 small cell lung was above 100 µM throughout. The compound further gave a TGI in the experiment with DMS 114 small cell lung above 100 µM.
For the compound `O=c1ccs[nH]1`, the TGI in the experiment with MDA-N was determined as 60.2 µM.
